In test [1] the target is T1, 4-hydroxyphenylpyruvate dioxygenase (Sus scrofa, UniProt Q02110). The test is described as follows: The inhibitory activity on pig liver 4-hydroxyphenylpyruvate dioxygenase (HPPD) was evaluated.
For test [2], the target named is T1, 4-hydroxyphenylpyruvate dioxygenase. The test is described as follows: Inhibitory activity on pig liver 4-hydroxyphenylpyruvate dioxygenase (HPPD) was evaluated.
Test [3] concerns the target 4-hydroxyphenylpyruvate dioxygenase (Sus scrofa) (UniProt Q02110). The test is described as follows: Compound was evaluated for complete competitive inhibition of 4-hydroxyphenylpyruvate dioxygenase (HPPD).
Test [4] concerns the target T1, 4-hydroxyphenylpyruvate dioxygenase. In words: Compound was evaluated for competitive inhibition of 4-hydroxyphenylpyruvate dioxygenase (HPPD) (complete inhibition was observed at a concentration of 0.5-1.0 mM).

In ChEMBL document CHEMBL1131943, “Inhibition of 4-hydroxyphenylpyruvate dioxygenase by sethoxydim, a potent inhibitor of acetyl-coenzyme A carboxylase” (Bioorg Med Chem Lett, 1999) one finds IC50, IC100 and Ki data, which are given here for three compounds.

Usually IC50 stands for the concentration that inhibits the measured activity by half. Low values mean greater potency, high ones weaker potency. As a reminder, the Ki is the dissociation constant of the complex between target and ligand, obtained from inhibition or displacement. A lower Ki goes with a stronger hold on the target.

T1 sequence (Q02110 whole entry): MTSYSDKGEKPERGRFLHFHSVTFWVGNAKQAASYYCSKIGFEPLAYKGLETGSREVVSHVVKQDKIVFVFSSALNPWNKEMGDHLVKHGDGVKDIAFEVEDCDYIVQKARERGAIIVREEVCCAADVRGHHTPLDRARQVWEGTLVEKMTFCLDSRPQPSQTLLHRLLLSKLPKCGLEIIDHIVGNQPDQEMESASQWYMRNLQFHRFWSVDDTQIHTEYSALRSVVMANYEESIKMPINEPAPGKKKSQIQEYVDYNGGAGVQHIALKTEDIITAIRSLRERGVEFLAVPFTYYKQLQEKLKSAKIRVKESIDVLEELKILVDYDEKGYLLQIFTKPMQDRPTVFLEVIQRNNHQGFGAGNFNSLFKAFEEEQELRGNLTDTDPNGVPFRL
4-hydroxyphenylpyruvate dioxygenase (Sus scrofa), sequence (Q02110 2-393 limits assumed): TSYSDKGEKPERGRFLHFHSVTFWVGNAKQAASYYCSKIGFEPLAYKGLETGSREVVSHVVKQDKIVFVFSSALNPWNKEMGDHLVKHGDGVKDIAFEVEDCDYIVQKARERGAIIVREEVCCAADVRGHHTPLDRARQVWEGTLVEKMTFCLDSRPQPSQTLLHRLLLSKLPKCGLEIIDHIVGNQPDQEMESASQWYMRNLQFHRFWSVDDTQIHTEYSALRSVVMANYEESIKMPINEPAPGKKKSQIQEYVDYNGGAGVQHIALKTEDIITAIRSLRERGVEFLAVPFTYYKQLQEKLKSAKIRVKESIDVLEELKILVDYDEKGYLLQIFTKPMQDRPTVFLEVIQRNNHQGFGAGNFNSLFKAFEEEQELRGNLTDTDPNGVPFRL

In test [1], `O=C1CCCC(=O)C1=C(O)c1ccc(C(F)(F)F)cc1[N+](=O)[O-]` gave an IC50 of 40 nM.

The compound `CS(=O)(=O)c1ccc(C(O)=C2C(=O)CCCC2=O)c(Cl)c1` displayed an IC50 in test [2] of 45 nM.

On to `CCC/C(=N\OCC)C1=C(O)CC(CC(C)SCC)CC1=O` (centres undefined) [SETHOXYDIM], for which the IC100 in test [3] came to 1 mM. In test [4], this compound came in with a Ki of 300000 nM.
